The source of these data is patent US9572783B1, “Use of xanthophylls for the treatment of cancers” (priority 2015, dated 2017).

Common to all, as to format: cell-based
Experiment [1] has as its system Mouse adrenocortical Y1 cell line. As to the kind of experiment: Y1 cell number count after astaxanthin treatment (growth curve). Conditions: 40 μM astaxanthin, 1, 2 or 3 days of treatment. How it is done:
(§1) Mouse adrenocortical Y1 cell line (ATCC, ATCC® CCL-79™) was grown in Dulbecco's modified Eagle medium (DMEM)-F12 supplemented with 10% fetal bovine serum at 37° C. in a humidified atmosphere at 5% CO2.
(§2) Astaxanthin (Model NO: ATP-9601A; Yuan Yu Bio-Tech (Taiwan), Co., Ltd) was dissolved in dimethyl sulfoxide (DMSO) at concentration of 20 mM as stock solution.
(§3) The Y1 cells were incubated with DMSO or 40 μM of astaxanthin for 1, 2 or 3 days before analysis.

Experiment [2] has the same test system. Nature of the experiment: MTT assay of Y1 cell viability. Conditions: Y1 cells, 40 μM astaxanthin, 48 hours. How it is done: as §1, §2, §3
(§4) Cells were washed with PBS after the treatment, followed by addition of 1 ml MTT (3-(4,5-cimethylthiazol-2-yl)-2,5-diphenyl tetrazolium bromide) solution (2 mg/ml in PBS) in each well. After incubation for 3 hours at 37° C., 2 ml of DMSO was added and cells were incubated in the dark for 30 minutes. Absorbance was measured at the wavelength of 570 nm (OD570).

The test system of experiment [3] is Human U87MG cell line. As to the kind of experiment: U87MG cell number count after astaxanthin treatment. The note with it: 100, 200 or 400 μM astaxanthin, 24 hours or 48 hours. As for the experimental part: (§5) Human U87MG (ATCC, ATCC® HTB-14™) cell line was grown in DMEM medium supplemented with 10% fetal bovine serum at 37° C. in a humidified atmosphere at 5% CO2. M059K (ATCC, ATCC® CRL-2365™) and M059J (ATCC, ATCC® CRL-2366™) cell lines were grown in Dulbecco's modified Eagle medium (DMEM)-F12 supplemented with 10% fetal bovine serum at 37° C. in a humidified atmosphere at 5% CO2.
(§6) Astaxanthin was dissolved in dimethyl sulfoxide (DMSO) at concentration of 20 mM as stock solution.
(§7) The U87MG, M059K, and M059J cell lines were treated with DMSO or 100, 200 or 400 μM of astaxanthin for 24 hours or 48 hours and cell numbers were counted.

In experiment [4] the test system is Human U87MG cell line. Nature of the experiment: MTT assay of U87MG cell viability. The note with it: DMSO or different concentrations of astaxanthin. As for the experimental part: as §4, §5, §6, §7
A further experiment relates to M059K cell line. Nature of the experiment: M059K cell number count after astaxanthin treatment. Conditions: 100, 200 or 400 μM astaxanthin, 24 hours or 48 hours. How it is done:
as §5, §6, §7

Another experiment relates to Human U2OS cell line. Nature of the experiment: U2OS cell number count after astaxanthin treatment. The note with it: 100, 200 or 400 μM astaxanthin, 72 hours. As for the experimental part: Human U2OS (ATCC, ATCC® HTB-96™) cell line was grown in DMEM medium supplemented with 10% fetal bovine serum at 37° C. in a humidified atmosphere at 5% CO2.
as §6
The U2OS cell line was treated with DMSO or 100, 200 or 400 μM of astaxanthin for 72 hours and cell numbers were counted.

Consider `CC1=C(/C=C/C(C)=C/C=C/C(C)=C/C=C/C=C(C)/C=C/C=C(C)/C=C/C2=C(C)C(=O)[C@@H](O)CC2(C)C)C(C)(C)C[C@H](O)C1=O` [astaxanthin, Astaxanthin], for which the “number of Y1 cells compared with control (DMSO treated) group” value in experiment [1] is recorded as “reduced”. The “OD570 (MTT, cell viability) compared with DMSO treated group” value in experiment [2] was “reduced”. Also, the “U87MG cell growth (cell number)” value with Human U87MG cell line [3] is “inhibited U87MG cell growth in a dose-dependent and time-dependent manner”. Further, in the experiment with Human U87MG cell line [4], the “viability of U87MG cells (MTT)” value is recorded as “reduced”. The “M059K cell growth (cell number)” value with M059K cell line is “also inhibited M059K”. Also, in the experiment with Human U2OS cell line, the “U2OS cell growth (cell number)” value is given as “inhibited U2OS cell growth in a dose-dependent manner”.
